Laboratory results: ChEMBL document CHEMBL1155731, “Montipyridine, a new pyridinium alkaloid from the stony coral montipora species” (2001)

What was measured:
Type in all cases: functional
Conditions in all cases: read-out: ED50 (the source's name)
SK-OV-3 = experiment: Cytotoxicity against human SKOV3 cells
HCT-15 = experiment: Cytotoxicity against human HCT15 cells
XF498 = experiment: Cytotoxicity against human XF498 cells
A549 = experiment: Cytotoxicity against human A549 cells
SK-MEL-2 = experiment: Cytotoxicity against human SK-MEL-2 cells

Measured: EC50

C=CCCCCCCCc1cc(OC)cc[n+]1CC(=O)[O-] [MONTIPYRIDINE]
> 30 µg/mL: all assays above
